Reference: patent US7217730B2, “Method for the use of pyranoindole derivatives to treat infection with Hepatitis C virus” (Wyeth, priority 2002, dated 2007)
Like-named read-outs stand apart in the source and are kept apart here.

Target: T1, NS5B from the BK strain (genotype 1b) (Hepatitis C virus genotype 1b, UniProt P26663)
T1 construct: NS5B from the BK strain (genotype 1b) is expressed in E. coli as a protein in which the 21 C-terminal amino acids are replaced; made in house; host or cells: E. coli
T1 sequence (P26663 2420-2989): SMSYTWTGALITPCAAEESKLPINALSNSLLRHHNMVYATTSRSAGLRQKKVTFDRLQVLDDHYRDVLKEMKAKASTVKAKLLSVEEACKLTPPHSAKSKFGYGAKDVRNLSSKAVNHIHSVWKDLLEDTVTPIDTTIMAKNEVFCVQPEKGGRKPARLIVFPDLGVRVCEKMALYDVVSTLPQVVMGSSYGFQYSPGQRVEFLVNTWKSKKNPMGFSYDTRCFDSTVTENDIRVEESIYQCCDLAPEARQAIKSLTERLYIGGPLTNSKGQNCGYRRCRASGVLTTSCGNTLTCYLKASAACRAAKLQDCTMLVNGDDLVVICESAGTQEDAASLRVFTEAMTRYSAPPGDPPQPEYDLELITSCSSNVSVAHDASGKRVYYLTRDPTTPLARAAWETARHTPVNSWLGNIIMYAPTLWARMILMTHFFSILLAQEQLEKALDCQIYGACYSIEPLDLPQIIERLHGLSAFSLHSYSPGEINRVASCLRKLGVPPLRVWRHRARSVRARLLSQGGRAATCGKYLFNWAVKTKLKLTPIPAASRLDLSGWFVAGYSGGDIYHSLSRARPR
Assay: Hepatitis C polymerase inhibition, NS5B BK strain, 33P-GTP filter assay
Type: biochemical
Details: for inhibition at 20 µM: read-out: HCV pol % inh at 20 μM; for IC50: NS5B BK strain, read-out: HCV pol BK IC50
From the text: The ability of the compounds of the present invention to inhibit Hepatitis C Polymerase was established by the following experimental procedure: • NS5B from the BK strain (genotype 1b) is expressed in E. coli as a protein in which the 21 C-terminal amino acids are replaced with a short linker and a hexahistidine tag ([…]). The purified protein is mixed with radioactive nucleotides and allowed to replicate a heteropolymeric RNA substrate, primed by an endogenous short hairpin, resulting in an approximately 760 nt product. The radioactive product is captured on a filter and quantitated after removal of the unincorporated nucleotides.
Reagents: • 10 mM uridine 5′-triphosphate (UTP) (Promega # p116B) • 10 mM adenine 5′-triphosphate (ATP) (Promega # p113B) • 10 mM cytidine 5′-triphosphate (CTP) (Promega # p114B) • 10 mM guanine 5′-triphosphate (GTP) (Promega # p115B) • Bovine Serum Albumin (BSA) 10 mg/ml NEB (100× at 10 mg/ml) #007-BSA • RNasein (Promega #N251X) 40 U/μl • A-[33P]-GTP (NEN-easytides NEG/606H 3000 Ci/mmol, 370 MBq/ml, 10 mCi/ml) • Falcon polypropylene 96 well plates (Becton Dickinson # 351190) • Millipore Multiscreen assasy system-96 well-filtration plate #MADE NOB 50 • Optiphase Supermix (Wallac) formulated by Fisher • Millipore Multiscreen liner for use in microbeta 1450-106 casette [(Wallac) Perkin Elmer #1450-433] • 1 M(N-[2-hydroxyethyl]piperazine-N′-[2-ethanesulfonic acid]) (HEPES), pH 7.3 • Amersham Pharmacia Biotec (US16924-500 ml) • 1 M MgCl2 (SIGMA #M1028) • Dithiothreitol (DTT) (solid) (SIGMA #D9779) • RNase free water (GIBCO-BRL #10977-023) • Dimethyl sulfoxide (Aldrich #27685-5) • Basilen Blue (Sigma, B5520) • 0.5M ethylenediaminetetraacetic acid (EDTA), pH 8 (GIBCO-BRL #15575-020) • Dibasic sodium phosphate (7-hydrate) (Na2HPO4.7H2O; Baker#3824-07) • Phosphoric acid (Baker, #0262.02)
Further reagent preparation: • 0.5 M Na Phosphate buffer. Per liter, weigh 134 gr Na2HPO4.7H2O, add water to 900 ml. Adjust pH to 7.0 with phosphoric acid. Top off with water to 1 L. • Dilute nucleotides 1:1000 to 10 μM (GTP and CTP) or 1:100 to 100 μM (ATP and UTP) into RNase free water.
Procedure: • (1) Compounds 10 μl at 10 μg/ml in 15% dimethylsulfoxide (DMSO)
When starting from 100 μg/ml compound stock in […]: • Dispense 5 μl 30% DMSO per well • Dispense 5 μl compound (100 μg/ml) per well.
When starting from 50 μg/ml compound stock in 15% DMSO: • Add 10 μl compound per well. • (2) Enzyme Mix:
Add 20 μl enzyme mix into each well of the assay plate. Incubate compound and enzyme at room temperature for 15 minutes • (3) Template mix—prepare ahead
Spin down a tube of RNA (5 μg/tube stored in 75% ethanol and 0.3 M sodium acetate) in a microcentrifuge for 20 minutes at 4° C. One tube is enough for 1–1.5 plates. Remove as much ethanol from the tube as possible by inverting the tube. Be gentle, pellet RNA may not adhere to the tube. Vacuum dry the RNA. Resuspend the RNA by adding 1 ml of DEPC water, close the cap of the tube tightly. To dissolve RNA, incubate RNA solution on ice for ˜60 minutes and gently vortex. Spin briefly to ensure all RNA solution is down to the bottom of the tube before opening cap. Gently transfer RNA solution into a 5 ml or larger tube. Add another 3 ml of DEPC water (total 4 ml of volume).
Add the following volumes of reagents
Add 20 μl template mix per reaction (i.e. 20 ng of pOF per reaction or ˜3 nM) • (4) Incubate reaction at room temperature (22–25° C.) for 2 hours. • (5) Stop reaction by adding 50 μl of 170 mM EDTA. • Final concentration of EDTA is 85 mM. • (6) Prewet filters of Millipore multiscreen assay plate by adding 200 μl of 0.5 M sodium phosphate buffer, pH 7.0 into each well. Let stand at room temperature for 2–3 minutes. • (7) Place the multiscreen filter plate onto a Millipore Manifold and turn on vacuum to allow buffer to flow through. Turn off vacuum. Transfer 80 μl of the reaction product into each well of the filter plate. Let stand for 2–3 minutes. […]

Which inhibition at 20 µM (Table 1A, 20 μM compound) does the source give for `CCCC1(CC(=O)O)OCCc2c1[nH]c1cccc(-c3ccc(C)cc3)c21` (stereo not drawn) [Example 32, [5-(4-methylphenyl)-1-propyl-1,3,4,9-tetrahydropyrano[3,4-b]indol-1-yl]acetic acid] here?
The inhibition at 20 µM was under 5%.

What about the IC50 (Table 1A) of the same molecule?
Its IC50 is over 20 µM.

For `CCCC1(CC(=O)O)OCCc2c1[nH]c1cccc(-c3ccc(OC)cc3)c21` (stereo not drawn) [Example 33, [5-(4-methoxyphenyl)-1-propyl-1,3,4,9-tetrahydropyrano[3,4-b]indol-1-yl]acetic acid], which inhibition at 20 µM (Table 1A, 20 μM compound) is on record?
The inhibition at 20 µM was under 5%.

And the IC50 (Table 1A)?
Its IC50 is over 20 µM.

With `CCCC1(CC(=O)O)OCCc2c1[nH]c1cccc(-c3ccc(Cl)cc3)c21` (stereo not drawn) [Example 34, (5-(4-chlorophenyl)-1-propyl-1,3,4,9-tetrahydropyrano[3,4-b]indol-1-yl]acetic acid] as the molecule, how does the inhibition at 20 µM (Table 1A, 20 μM compound) read?
The inhibition at 20 µM was 5%.

What about the IC50 (Table 1A) of the same molecule?
Its IC50 is over 20 µM.

For `CCCC1(CC(=O)O)OCCc2c1[nH]c1cccc(-c3ccc(Cl)cc3Cl)c21` (stereo not drawn) [Example 35, [5-(2,4-dichlorophenyl)-1-propyl-1,3,4,9-tetrahydropyrano[3,4-b]indol-1-yl]acetic acid], which inhibition at 20 µM (Table 1A, 20 μM compound) is on record?
The inhibition at 20 µM was 35%.

What about the IC50 (Table 1A) of the same molecule?
Its IC50 is over 20 µM.

Which inhibition at 20 µM (Table 1A, 20 μM compound) does the source give for `CCCC1(CC(=O)O)OCCc2c1[nH]c1cccc(-c3ccc(C(F)(F)F)cc3)c21` (stereo not drawn) [Example 36, {1-propyl-5-[4-(trifluoromethyl)phenyl]-1,3,4,9-tetrahydropyrano[3,4-b]indol-1-yl}acetic acid] here?
The inhibition at 20 µM was 4%.

And the IC50 (Table 1A)?
The IC50 was over 20 µM.

Which results are given for `CCCC1(CC(=O)O)OCCc2c1[nH]c1cccc(-c3cccs3)c21` (stereo not drawn) [Example 37, (1-propyl-5-thien-2-yl-1,3,4,9-tetrahydropyrano[3,4-b]indol-1-yl)acetic acid]?
inhibition at 20 µM (Table 1A, 20 μM compound): 28%; IC50 (Table 1A): > 20 µM

Which inhibition at 20 µM (Table 1A, 20 μM compound) does the source give for `CCCC1(CC(=O)O)OCCc2c1[nH]c1cccc(-c3ccc4ccccc4c3)c21` (stereo not drawn) [Example 38, [5-(2-naphthyl)-1-propyl-1,3,4,9-tetrahydropyrano[3,4-b]indol-1-yl]acetic acid] here?
Its inhibition at 20 µM is 11%.

And the IC50 (Table 1A)?
Its IC50 is over 20 µM.

For `CCCC1(CC(=O)O)OCCc2c1[nH]c1cccc(-c3ccc(-c4ccccc4)cc3)c21` (stereo not drawn) [Example 39, [5-(1,1′-biphenyl-4-yl)-1-propyl-1,3,4,9-tetrahydropyrano[3,4-b]indol-1-yl]acetic acid], which inhibition at 20 µM (Table 1A, 20 μM compound) is on record?
The inhibition at 20 µM was 7%.

And the IC50 (Table 1A)?
The IC50 was over 20 µM.

What does the source list for `CCCC1(CC(=O)O)OCCc2c1[nH]c1cccc(-c3ccco3)c21` (stereo not drawn) [Example 40, [5-(2-furyl)-1-propyl-1,3,4,9-tetrahydropyrano[3,4-b]indol-1-yl]acetic acid]?
inhibition at 20 µM (Table 1A, 20 μM compound): 27%; IC50 (Table 1A): > 20 µM

How did the inhibition at 20 µM (Table 1A, 20 μM compound) turn out when `CCCC1(CC(=O)O)OCCc2c1[nH]c1cccc(-c3ccc(Br)cc3)c21` (stereo not drawn) [Example 41, [5-(4-bromophenyl)-1-propyl-1,3,4,9-tetrahydropyrano[3,4-b]indol-1-yl]acetic acid] was run?
Its inhibition at 20 µM is 13%.

And the IC50 (Table 1A)?
Its IC50 is over 20 µM.

For `CCCC1(CC(=O)O)OCCc2c1[nH]c1cccc(-c3ccccc3C)c21` (stereo not drawn) [Example 42, [5-(2-methylphenyl)-1-propyl-1,3,4,9-tetrahydropyrano[3,4-b]indol-1-yl]acetic acid], which inhibition at 20 µM (Table 1A, 20 μM compound) is on record?
Its inhibition at 20 µM is 31%.

What about the IC50 (Table 1A) of the same molecule?
The IC50 was over 20 µM.

`CCCC1(CC(=O)O)OCCc2c1[nH]c1cccc(-c3ccccc3OC)c21` (stereo not drawn) [Example 43, [5-(2-methoxyphenyl)-1-propyl-1,3,4,9-tetrahydropyrano[3,4-b]indol-1-yl]acetic acid] was tested. Which IC50 (Table 1A) did it give?
Its IC50 is over 20 µM.

What about the inhibition at 20 µM of the same molecule?
The inhibition at 20 µM was 83%.

How did the inhibition at 20 µM (Table 1A, 20 μM compound) turn out when `CCCC1(CC(=O)O)OCCc2c1[nH]c1cccc(-c3ccccc3Cl)c21` (stereo not drawn) [Example 44, [5-(2-chlorophenyl)-1-propyl-1,3,4,9-tetrahydropyrano[3,4-b]indol-1-yl]acetic acid] was run?
The inhibition at 20 µM was 41%.

What about the IC50 (Table 1A) of the same molecule?
Its IC50 is over 20 µM.

What does the source list for `CCCC1(CC(=O)O)OCCc2c1[nH]c1cccc(-c3ccccc3C(F)(F)F)c21` (stereo not drawn) [Example 45, (1-propyl-5-[2-(trifluoromethyl)phenyl]-1,3,4,9-tetrahydropyrano[3,4-b]indol-1-yl)acetic acid]?
inhibition at 20 µM (Table 1A, 20 μM compound): 14%; IC50 (Table 1A): > 20 µM

How did the inhibition at 20 µM (Table 1A, 20 μM compound) turn out when `CCCC1(CC(=O)O)OCCc2c1[nH]c1cccc(-c3ccc(SC)cc3)c21` (stereo not drawn) [Example 46, (5-[4-(methylthio)phenyl]-1-propyl-1,3,4,9-tetrahydropyrano[3,4-b]indol-1-yl)acetic acid] was run?
Its inhibition at 20 µM is 15%.

And the IC50 (Table 1A)?
Its IC50 is over 20 µM.

What does the source list for `CCCC1(CC(=O)O)OCCc2c1[nH]c1cccc(-c3cccc(OC)c3)c21` (stereo not drawn) [Example 47, [5-(3-methoxyphenyl)-1-propyl-1,3,4,9-tetrahydropyrano[3,4-b]indol-1-yl]acetic acid]?
inhibition at 20 µM (Table 1A, 20 μM compound): 15%; IC50 (Table 1A): > 20 µM

For `CCCC1(CC(=O)O)OCCc2c1[nH]c1cccc(-c3ccc(F)cc3)c21` (stereo not drawn) [Example 48, [5-(4-fluorophenyl)-1-propyl-1,3,4,9-tetrahydropyrano[3,4-b]indol-1-yl]acetic acid], which inhibition at 20 µM (Table 1A, 20 μM compound) is on record?
The inhibition at 20 µM was 18%.

What about the IC50 (Table 1A) of the same molecule?
Its IC50 is over 20 µM.

Which inhibition at 20 µM (Table 1A, 20 μM compound) does the source give for `CCCC1(CC(=O)O)OCCc2c1[nH]c1cccc(-c3cccc(Cl)c3)c21` (stereo not drawn) [Example 49, [5-(3-chlorophenyl)-1-propyl-1,3,4,9-tetrahydropyrano[3,4-b]indol-1-yl]acetic acid] here?
Its inhibition at 20 µM is under 5%.

What about the IC50 (Table 1A) of the same molecule?
The IC50 was over 20 µM.

Which inhibition at 20 µM (Table 1A, 20 μM compound) does the source give for `C/C=C/CCC1(CC(=O)O)OCCc2c1[nH]c1c(Cl)ccc(Cl)c21` (stereo not drawn) [Example 50, (5,8-dichloro-1-[(3E)-pent-3-enyl]-1,3,4,9-tetrahydropyrano[3,4-b]indol-1-yl)acetic acid] here?
The inhibition at 20 µM was 34%.

And the IC50 (Table 1A)?
Its IC50 is over 20 µM.

Which inhibition at 20 µM (Table 1A, 20 μM compound) does the source give for `CC(C)C1(CC(=O)O)OCCc2c1[nH]c1c(Cl)ccc(Cl)c21` (stereo not drawn) [Example 51, (5,8-dichloro-1-isopropyl-1,3,4,9-tetrahydropyrano[3,4-b]indol-1-yl)acetic acid] here?
Its inhibition at 20 µM is 84%.

What about the IC50 (Table 1A) of the same molecule?
Its IC50 is 7 µM.

For `O=C(O)CC1(c2ccccc2)OCCc2c1[nH]c1c(Cl)ccc(Cl)c21` (stereo not drawn) [Example 52, (5,8-dichloro-1-phenyl-1,3,4,9-tetrahydropyrano[3,4-b]indol-1-yl)acetic acid], which inhibition at 20 µM (Table 1A, 20 μM compound) is on record?
The inhibition at 20 µM was 11%.

And the IC50 (Table 1A)?
Its IC50 is over 20 µM.

For `O=C(O)CC1(c2ccoc2)OCCc2c1[nH]c1c(Cl)ccc(Cl)c21` (stereo not drawn) [Example 53, [5,8-dichloro-1-(3-furyl)-1,3,4,9-tetrahydropyrano[3,4-b]indol-1-yl]acetic acid], which inhibition at 20 µM (Table 1A, 20 μM compound) is on record?
The inhibition at 20 µM was 62%.

What about the IC50 (Table 1A) of the same molecule?
The IC50 was 13 µM.

Which results are given for `CC(C)CCCC1(CC(=O)O)OCCc2c1[nH]c1c(Cl)ccc(Cl)c21` (stereo not drawn) [Example 54, [5,8-dichloro-1-(4-methylpentyl)-1,3,4,9-tetrahydropyrano[3,4-b]indol-1-yl]acetic acid]?
inhibition at 20 µM (Table 1A, 20 μM compound): 6%; IC50 (Table 1A): > 20 µM

How did the inhibition at 20 µM (Table 1A, 20 μM compound) turn out when `COc1cc(C2(CC(=O)O)OCCc3c2[nH]c2c(Cl)ccc(Cl)c32)cc(OC)c1OC` (stereo not drawn) [Example 55, [5,8-dichloro-1-(3,4,5-trimethoxyphenyl)-1,3,4,9-tetrahydropyrano[3,4-b]indol-1-yl]acetic acid] was run?
Its inhibition at 20 µM is under 5%.

What about the IC50 (Table 1A) of the same molecule?
Its IC50 is over 20 µM.
